Consider three compounds from patent US11279733B2, “Peptide antibiotics” (priority 2017, dated 2022).

Molecules are shown by their SMILES. Converted amounts (≈) assume the structure as drawn. Positions of bridges follow the written chain, without caps; N, C: chain ends. Non-standard residues stand in square brackets, D forms with d. Residues, ends and D or L forms follow the SMILES beside them. *: point of attachment. Ala(benzothiazol-2-yl) = N[C@@H](Cc1nc2ccccc2s1)C(=O)O; Decanoyl(3R-OH) = CCCCCCC[C@@H](O)CC(=O)*; 2Nal = N[C@@H](Cc1ccc2ccccc2c1)C(=O)O; 3Pal = N[C@@H](Cc1cccnc1)C(=O)O; dDab = NCC[C@@H](N)C(=O)O; Dab = NCC[C@H](N)C(=O)O

For one data set, the system named is A. baumannii ATCC 19606. Particulars: ATCC 19606. In outline:
(§1)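 Mid-log cultures grown in Mueller Hinton broth at 37° C were tested by 2-fold broth microdilution at 5×10^5 CFU/mL final. Compounds were dissolved in water and tested over a final range of 32 to 0.015 μg/mL.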

A further data set relates to A. baumannii GN_093 PmxR. Particulars: GN 093 PmxR. A digest of the protocol:
as §1

Another data set deals with E. coli ATCC 25922. The following applies: ATCC 25922. In outline: as §1
The subject of the next data set is K. pneumoniae ATCC 13883. The following applies: ATCC 13883. In outline:
as §1

For data set [1], the system named is K. pneumoniae ATCC 700603, MDR. The following applies: ATCC 700603. A digest of the protocol:
as §1

Data set [2] concerns K. pneumoniae ATCC BAA-2146, NDM-1 pos. Particulars: ATCC BAA-2146. In outline:
as §1

Data set [3] concerns K. pneumoniae GN_102 PmxR. Particulars: GN 102 PmxR. A digest of the protocol:
as §1

Data set [4] relates to K. pneumoniae GN_106, PmxR. The following applies: GN 106, PmxR. In outline:
as §1

Another data set has as its system P. aeruginosa ATCC 27853. Particulars: ATCC 27853. In outline:
as §1

Data set [5] relates to P. aeruginosa GN_043, PmxR. Particulars: polymyxin-resistant. In outline:
as §1

The test system of data set [6] is P. aeruginosa GN_105, PmxR. The following applies: GN 105, PmxR. In outline:
as §1

Data set [7] concerns S. aureus ATCC 25923, MSSA. Particulars: ATCC 25923. In outline: as §1
The next data set in a line: in vitro. The following applies: human. In outline: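 Cells were seeded at 4000 per well and allowed to attach for 24 h at 37 °C, 5% CO2, then exposed to compounds for 24 h. Resazurin (5 μM) was added for 2 h at 37 °C and fluorescence read at 560/590 nm. CC50 was derived by curve fitting of dose-dependent growth inhibition.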

In the case of `CCCCCCC[C@@H](O)CC(=O)N[C@H](CCN)C(=O)N[C@H]1CCNC(=O)[C@H](Cc2cccnc2)NC(=O)[C@H](CCN)NC(=O)[C@H](CCN)NC(=O)[C@H](CC(C)C)NC(=O)[C@@H](Cc2ccccc2)NC(=O)[C@H](CCN)NC1=O` [compound 8907, 3(R)OH-nC9CO-D-Dab-cyc[L-Dab-L-Dab-D-Phe-L-Leu-L-Dab-L-Dab-L-Ala(3py)]] ({Decanoyl(3R-OH)}-[dDab][Dab][Dab][dF]L[Dab][Dab][3Pal]; lactam 2-C), in the data set with A. baumannii ATCC 19606, the “MIC A. baumannii ATCC 19606” value is above 32 µg/mL. Besides, in the data set on A. baumannii GN_093 PmxR, the “MIC A. baumannii GN_093 PmxR” value was above 32 µg/mL. For the same compound, in the data set with E. coli ATCC 25922, the “MIC E. coli ATCC 25922” value was 4 µg/mL (≈ 3.71 µM). For the same compound, the “MIC K. pneumoniae ATCC 13883” value against K. pneumoniae ATCC 13883 stood at 4 µg/mL (≈ 3.71 µM). Moreover, the “MIC K. pneumoniae ATCC 700603, MDR” value in data set [1] amounted to 4 µg/mL (≈ 3.71 µM). The “MIC K. pneumoniae ATCC BAA-2146, NDM-1 pos” value in data set [2] came to 8 µg/mL (≈ 7.41 µM). The “MIC K. pneumoniae GN_102 PmxR” value in data set [3] came to 32 µg/mL (≈ 29.6 µM). Further, in data set [4], the “MIC K. pneumoniae GN_106, PmxR” value was 8 µg/mL (≈ 7.41 µM). Also, in the data set with P. aeruginosa ATCC 27853, the “MIC P. aeruginosa ATCC 27853” value is 1 µg/mL (≈ 0.926 µM). In data set [5], the “MIC P. aeruginosa GN_043, PmxR” value came out at 1 µg/mL (≈ 0.926 µM). In addition, the “MIC P. aeruginosa GN_105, PmxR” value in [6] was found to be 1 µg/mL (≈ 0.926 µM). Also, the “MIC S. aureus ATCC 25923, MSSA” value in data set [7] is above 32 µg/mL. In addition, the CC50 at 24 h in the data set “in vitro” was above 300 µM.

Take `CCCCCCC[C@@H](O)CC(=O)N[C@H](CCN)C(=O)N[C@H]1CCNC(=O)[C@H](Cc2ccc3ccccc3c2)NC(=O)[C@H](CCN)NC(=O)[C@H](CCN)NC(=O)[C@H](CC(C)C)NC(=O)[C@@H](Cc2ccccc2)NC(=O)[C@H](CCN)NC1=O` [compound 8908, 3(R)OH-nC9CO-D-Dab-cyc[L-Dab-L-Dab-D-Phe-L-Leu-L-Dab-L-Dab-L-Ala(2Naphthyl)]] ({Decanoyl(3R-OH)}-[dDab][Dab][Dab][dF]L[Dab][Dab][2Nal]; lactam 2-C): the “MIC A. baumannii ATCC 19606” value in the data set with A. baumannii ATCC 19606 stood at 4 µg/mL (≈ 3.54 µM). Also, the “MIC A. baumannii GN_093 PmxR” value in the data set on A. baumannii GN_093 PmxR is 4 µg/mL (≈ 3.54 µM). Moreover, the “MIC E. coli ATCC 25922” value against E. coli ATCC 25922 was determined as 2 µg/mL (≈ 1.77 µM). Besides, the “MIC K. pneumoniae ATCC 13883” value against K. pneumoniae ATCC 13883 is 2 µg/mL (≈ 1.77 µM). Also, the “MIC K. pneumoniae ATCC 700603, MDR” value in data set [1] worked out at 4 µg/mL (≈ 3.54 µM). Further, the “MIC K. pneumoniae ATCC BAA-2146, NDM-1 pos” value in data set [2] stood at 4 µg/mL (≈ 3.54 µM). The “MIC K. pneumoniae GN_102 PmxR” value in data set [3] came to 4 µg/mL (≈ 3.54 µM). Also, in data set [4], the “MIC K. pneumoniae GN_106, PmxR” value turned out to be 4 µg/mL (≈ 3.54 µM). Further, the “MIC P. aeruginosa ATCC 27853” value against P. aeruginosa ATCC 27853 came out at 4 µg/mL (≈ 3.54 µM). Also, in [5], the “MIC P. aeruginosa GN_043, PmxR” value worked out at 4 µg/mL (≈ 3.54 µM). Also, the “MIC P. aeruginosa GN_105, PmxR” value in [6] came out at 2 µg/mL (≈ 1.77 µM). In [7], the “MIC S. aureus ATCC 25923, MSSA” value came to 4 µg/mL (≈ 3.54 µM). The same compound registered a CC50 at 24 h in “in vitro” of 39 µM.

On to `CCCCCCC[C@@H](O)CC(=O)N[C@H](CCN)C(=O)N[C@H]1CCNC(=O)[C@H](Cc2nc3ccccc3s2)NC(=O)[C@H](CCN)NC(=O)[C@H](CCN)NC(=O)[C@H](CC(C)C)NC(=O)[C@@H](Cc2ccccc2)NC(=O)[C@H](CCN)NC1=O` [compound 8910, 3(R)OH-nC9CO-D-Dab-cyc[L-Dab-L-Dab-D-Phe-L-Leu-L-Dab-L-Dab-L-Ala(Bth)]] ({Decanoyl(3R-OH)}-[dDab][Dab][Dab][dF]L[Dab][Dab][Ala(benzothiazol-2-yl)]; lactam 2-C), for which the “MIC A. baumannii ATCC 19606” value against A. baumannii ATCC 19606 was 8 µg/mL (≈ 7.05 µM). In addition, the “MIC A. baumannii GN_093 PmxR” value with A. baumannii GN_093 PmxR was 4 µg/mL (≈ 3.52 µM). Besides, the “MIC E. coli ATCC 25922” value with E. coli ATCC 25922 is 2 µg/mL (≈ 1.76 µM). The “MIC K. pneumoniae ATCC 13883” value in the data set on K. pneumoniae ATCC 13883 worked out at 4 µg/mL (≈ 3.52 µM). For the same compound, the “MIC K. pneumoniae ATCC 700603, MDR” value in data set [1] worked out at 4 µg/mL (≈ 3.52 µM). In data set [2], the “MIC K. pneumoniae ATCC BAA-2146, NDM-1 pos” value amounted to 4 µg/mL (≈ 3.52 µM). In data set [3], the “MIC K. pneumoniae GN_102 PmxR” value worked out at 8 µg/mL (≈ 7.05 µM). Besides, the “MIC K. pneumoniae GN_106, PmxR” value in data set [4] is 4 µg/mL (≈ 3.52 µM). Moreover, the “MIC P. aeruginosa ATCC 27853” value in the data set with P. aeruginosa ATCC 27853 is 2 µg/mL (≈ 1.76 µM). Also, the “MIC P. aeruginosa GN_043, PmxR” value in data set [5] was 4 µg/mL (≈ 3.52 µM). Also, in data set [6], the “MIC P. aeruginosa GN_105, PmxR” value is 2 µg/mL (≈ 1.76 µM). For the same compound, the “MIC S. aureus ATCC 25923, MSSA” value in data set [7] was determined as 4 µg/mL (≈ 3.52 µM). In “in vitro”, this compound displayed a CC50 at 24 h of 47 µM.
